According to US10954300B2, “Use of pentoxifylline with immune checkpoint-blockade therapies for the treatment of melanoma” (THE TRUSTEES OF COLUMBIA UNIVERSITY IN THE CITY OF NEW YORK, priority 2015, dated 2021):

Tested on: Treg cells
Test: RNA-Seq of PTXF-treated Treg cells
Type: cell-based, mice
Conditions: 500 μg/mL PTXF
Experimental: Total cells suspensions were then activated with 5 μg/mL plate-coated anti-mCD3, 1 μg/ml soluble anti-mCD28 (BioLegend) and 10 ng/mL mIL-2, overnight at 37 C. Treg cells were then washed for further use. Total RNA was extracted using a Qiagen Rneasy Mini Kit with DNase treatment. For qPCR, RNA was reverse transcribed by Superscript III (Invitrogen). cDNAs were used for PCR with SYBR Green reagents (Quanta Biosciences, Gaithersburg, Md.) on a C1000 Touch thermal cycler (Bio Rad, Hercules, Calif.). The data was normalized to GAPDH expression. Primers sequences can be sent under request. For RNA-sequencing, libraries were prepared using an Illumina TruSeq Library Kit and sequenced by an Illumina 2500 instrument. Upon sequencing, raw FASTQ files were aligned on the mm10 genome using STAR aligner with default parameters (Dobin et al., 2013). Aligned fragments were then counted and annotated using Rsamtools v3.2 and the TxDb.Mmusculus.UCSC.mm10.knownGene' version 3.1.2 transcript database respectively. Normalized FPKM (fragments per kilobase per million mapped reads) were obtained using the robust FPKM estimate function of DeSeq2 v1.10.1 after removing the batch effect using the ComBat function of the sva package v3.18.0. Differentially expressed genes were obtained using the DESeqResults function of the same package. All p-values were adjusted for multiple comparison using the Benjamini & Hochberg FDR algorithm. For gene set enrichment analysis, the GSEA software was used, and Molecular Signature Database (MSigDB) including the ImmuneSigDB (C7 collection)(Godec et al., 2016; Subramanian et al., 2005).

SMILES: CC(=O)CCCCn1c(=O)c2c(ncn2C)n(C)c1=O [PTXF, 1-(5-oxohexyl)-3,7-dimethylxanthine]
- Foxp3 mRNA: unaffected
- expression of Cbl-b: up-regulated
- expression of Gzmb and Tgfb1: decreased expression
- expression of c-Rel mRNA: unaffected
- expression of genome organizer Sat1: up-regulated
